How the values were obtained:
HCMV [1] = experiment: HCMV IE1 / viral gene expression, western blot of infected cells; assay type: cell-based, Human cytomegalovirus; conditions: for HCMV IE1 gene expression: IMC-3G3 10 μg/ml 12 h or Gleevec 100 nM 1 h pre-treatment, western blot
Protocol: (A) pp65 immunofluorescence after HCMV treatment (1 h, 4° C.) followed by shifting to 37° C. for indicated times. Rows represent (top to bottom): HEL, PDGFRα null fibroblasts, parental fibroblasts, null fibroblasts overexpressing hPDGFRα, HEL transfected with control, or PDGFRα siRNA. Nuclei were stained with DAPI. (B) Average±S.D. pp65 positive/100 cells counted in triplicate from (A). (C) Mock or HCMV infected cells were analyzed by western blotting with the indicated antibodies. Lanes 1-4 indicate HEL, 325S, PDGFRα null and PDGFRα null over-expressing hPDGFRα, respectively. (D) HEL transfected with control or PDGFRα siRNA were mock (lanes 1) or HCMV-treated (lanes 2) and subjected to western blots with indicated antibodies. (E) Western blot of HEL and U87 lysates after infection with mock (lanes 1), HCMV (lanes 2), or HCMV pretreated with IMC-3G3 (10 μg/ml, 12 h, lanes 3) or Gleevec (100 nM, 1 h, lanes 4). (F) PDGFRα siRNA treated cells infected with indicated HCMV strains and immunostained for IE1 12 hpi (primary infection). 6 dpi, supernatants were used to infect naïve HEL cells, followed by IE1 immunostaining and quantification (secondary infection). Average (n=6) values±S.D. are shown.
HUVEC cells were pre-treated with IMC-3G3 (10 μg/ml, Imclone, 12 h), or Gleevec (100 nM, 1 h) prior to HCMV or mock infection. 12 hours post-infection, cell lysates were analyzed by western blot for the presence of IE1 gene product. […] The same blot was stripped and re-probed for actin (lower panel). Lane designation is 1—Mock, 2—HCMV, 3—IMC-3G3+HCMV, 4—Gleevec+HCMV.
Upper panel: HEL cells pretreated with anti-human PDGFRα antibody (10 ng/ml, for 30 min, clone AF-307-NA from R&D; lanes 1 and 3) or with AG 1295 (lane 4, […], from Calbiochem) were stimulated with Towne HCMV (lanes 2 through 4) or Mock infected (lane 1) for 10 min at 37 C. Cells were washed and further incubated for 2 h at 37 C (to allow expression of IE1 gene product). Afterwards, cells were harvested in RIPA buffer and processed for western blotting as described.
Western Blot, Immunoprecipitation, and Immunofluorescence analyses. For stimulation experiments, cells were serum-starved for 24 h, followed by stimulation with HCMV (MOI of 0.5), PDGF-AA (5-10 ng/ml, from R&D Systems), or mock, for 10 minutes. In some cases, cells were pre-treated with IMC-3G3 (ImClone Inc.) at 10 µg/ml (2 or 12 h) or Gleevec® (100 nM, 1 h) prior to HCMV exposure. Cell lysates were analyzed by SDS-PAGE. Antibodies used were as follows: polyclonal anti-PDGFRα ( 1/500), phosphor-Tyrosine clone 4G10 ( 1/1000), and monoclonal anti-p85 PI3-K ( 1/1000), (Upstate Biotechnology), anti HCMV IE1 MAB810 (Chemicon; 1/1000), anti HCMV pp65 (Novocastra, 1/1000), anti-phosphor-PDGFRα ( 1/500, pTyr 754), anti-phosphor-Akt (Ser 473, 1/1000) and total Akt ( 1/1000; all from Cell Signaling). Anti-actin polyclonal control antibody was used ( 1/500, Sigma). Immunoprecipitations were performed using protein G (Pierce) according to manufacturer's instructions. For immunofluorescence, monoclonal HCMV pp65 and phosphor-PDGFRα (p-Tyr 754, Santa Cruz Biotechnology) were used, overnight at 4° C., followed by 1 hour incubation with secondary antibodies conjugated to Alexa-488, or Alexa 568 ( 1/5,000, Molecular Probes). Nuclei were counterstained with DAPI. Co-immunoprecipitation experiments were performed using full length soluble purified recombinant gB (gB 680, from Don Diamond, City of Hope, Calif.) and detergent soluble extract of HEL cells generated in lysis buffer (1% NP-40, 75 mM NaCl and 50 mM Tris-HCl). 500 μg of protein from total cell extract was incubated with 25 μg of gB 680 in lysis buffer in the presence of an anti-gB (Virusys, Inc) or anti-PDGFRα (R&D) antibody overnight at 4° C. Immune complexes were recovered with protein A-Sepharose beads (2 hr incubation), denatured and separated on SDS-PAGE for western blot with anti-gB (Virusys, Inc) or anti-PDGFRα (Cell Signaling Technology) antibodies.

HCMV [2] = experiment: Viral attachment and internalization assay (pp65 immunofluorescence); assay type: cell-based, Human cytomegalovirus
Protocol: (A) HEL cells were pretreated with PBS (20 min 4° C.), IMC-3G3 (2 h, 37° C., 10 μg/ml), or PDGF-AA (20 min, 4° C., 10 ng/ml) prior to infection with HCMV (MOI of 1, 4° C., 1 h). Cells were returned to 37° C. for 30 minutes, and processed for pp65^HCMV and PDGFRα double immunofluorescence. […] All conditions were assayed in triplicate cultures. One hundred cells in 4 low magnification fields were counted. Bars represent SD.
Viral Attachment and Internalization Assays. Mouse fibroblasts and HEL cells (72 hours following siRNA transfections) were incubated with HCMV (MOI of 0.5) or mock treated for 1 hour at 4° C., after which cells were returned to 37° C. for 15, 30, or 60 min. Cells were fixed using methanol (20 min) and processed for pp65 immunofluorescence. Four low power fields were counted for each condition and pp65 positive were recorded for each 100 cells. Internalization assays were repeated twice.

[3] = human epithelial, endothelial, and fibroblast cells

For “IMC-3G3: humanized PDGFRα blocking antibody (ImClone Inc.)”, the “HCMV IE1 gene expression” value (HCMV [1]; HEL cells) was “completely inhibited”, the “HCMV IE1 expression” value (HCMV [1]; HUVEC, pre-treated with IMC-3G3 10 μg/ml 12 h or Gleevec 100 nM 1 h, western blot 12 hours post-infection) was “completely inhibited” and the “HCMV IE1 gene expression” value (HCMV [1]; U87 glioma cells) was “completely inhibited”. The HCMV gene expression (HCMV [1]; [3]) was “completely inhibited”, the “inhibition of HCMV entry (pp65 positive cells)” value (HCMV [2]; HEL cells, IMC-3G3 2 h, 37° C., 10 μg/ml, PDGF-AA 20 min, 4° C., 10 ng/ml, HCMV MOI of 1, 30 min at 37° C.) was ~45% and the HCMV viral internalization (HCMV [2]; [3]) was “completely inhibited”.

From patent publication US9340788B2 (priority 2007, dated 2016)
